Here are results for three compounds from US4596806A, “7-piperidino-1,2,3,5-tetrahydroimidazo[2,1-b]-quinazolin-2-one having platelet aggregation inhibitory activity” (Daiichi Seiyaku Co., Ltd., priority 1983, dated 1986).

In general, IC50 refers to the concentration at which inhibition is half-maximal. What is called solubility is the concentration that dissolves in the medium under given conditions. Read a low solubility as little dissolved substance. One may read the inhibition as the change of the read-out against control, counted positive when it falls.

Counter-ions that a name gives are not always drawn. Like-named read-outs stand apart in the source and are kept apart here.

In data set [1] the test system is platelet aggregation. The experiment in a line: Test of Platelet Aggregation Inhibition (in vitro), rat PRP. The class given is cell-based, rat (Wistar Imamichi). Particulars: rat blood, read-out: Platelet Aggregation Inhibitory Activity (in vitro: IC50). The protocol:
(§1) The test was performed as follows in accordance with the method of Ashida et al, Thrombosis and Haemostasis, Vol. 40, p542 (1979).
(§2) Blood was taken by puncture from the heart of a Wistar Imamichi rat under anesthesia with pentobarbital into a syringe containing 1/10 volume of a 3.13% aqueous solution of sodium citrate dihydrate, and the citrated blood was centrifuged to obtain a platelet-rich-plasma (PRP). In the same manner, citrated blood was collected from the vein of a healthy human who had not taken aspirin or any other anti-inflammatory agent since before 10 days, followed by centrifugation to obtain PRP. 0.005 ml of each test compound was added to 0.445 ml each of these PRP samples, and the system was warmed at 30° C. for 1 minute. 0.05 ml of an aggregation inducer (ADP or collagen) was then added thereto, and platelet aggregation was determined according to the method of Born, Nature, Vol. 194, p927 (1962). The inhibitory activity of platelet aggregation was expressed in terms of 50% inhibition concentration, and the results obtained are shown in Table 2.

The test system of data set [2] is platelet aggregation. Put plainly: Test of Platelet Aggregation Inhibition (in vitro), human PRP. The format is cell-based. Particulars: for IC50: Homo sapiens, Platelet, human blood, read-out: Platelet Aggregation Inhibitory Activity (in vitro: IC50). On the procedure:
as §1, §2

For the next data set, the system named is circulatory system. Put plainly: Test of Influence on Circulatory System (blood pressure, heart beat). The format is in vivo, rat (male normal SLC-Wistar). As to conditions: p.o. 50 mg/Kg. On the procedure:
5 or 6 male normal SLC-Wistar rats per group (body weight: 205-255 g) orally received 50 mg/Kg of the test compound, and the blood pressure (tail cuff method) and the heart beats were measured with the passage of time in order to elucidate influences of the test compound on the circulatory system.

Data set [3] is described as follows: Solubility Test (water-solubility). The class given is physicochemical.
The subject of data set [4] is platelet aggregation. The experiment in a line: Test of Platelet Aggregation Inhibition (ex vivo, p.o.). As to conditions: for inhibition at 1 mg/kg / inhibition at 10 mg/kg: Rattus norvegicus, Platelet, po, 1 h, read-out: Platelet Aggregation Inhibitory Activity (ex vivo: % inhibition); for inhibition at 1 mg/kg: p.o. 1 mg/Kg; for inhibition at 10 mg/kg: p.o. 10 mg/Kg; for aggregation inhibitory activity ex vivo (in words): p.o. 10 mg/Kg or 1 mg/Kg, ADP- or collagen-induced. The format is in vivo, rat (male Wistar Imamichi).
Method: One hour later, citrated blood was taken from the heart, and platelet aggregation was determined in the same manner as described in Test Example 2.

Setting [5] is: pH 2, Tap Water, solution pH about 2.

As for `Cc1cccc2c1CN1CC(=O)NC1=N2.Cl` [BL-3459, 6-methyl-1,2,3,5-tetrahydroimidazo[2,1-b]quinazolin-2-one hydrochloride], the IC50 in the data set on platelet aggregation [1] (inducer ADP) came out at 5 µM; in the data set on platelet aggregation [1] (inducer collagen), 0.76 µM; with platelet aggregation [2] (inducer ADP), 1.7 µM; in the data set with platelet aggregation [2] (inducer collagen), 0.7 µM. In addition, the “Increase in Heart Beat” value is given as 18% in the data set on circulatory system (1 hr after admin.); 20% in the data set on circulatory system (2 hr after admin.); 17% with circulatory system (3 hr after admin.); 18% in the data set on circulatory system (5 hr after admin.); 19% with circulatory system (6 hr after admin.). Moreover, the “Reduction in Blood Pressure” value is 23% in the data set on circulatory system (1 hr after admin.); 28% in the data set on circulatory system (2 hr after admin.); 26% with circulatory system (3 hr after admin.); 34% in the data set on circulatory system (5 hr after admin.); 35% in the data set with circulatory system (6 hr after admin.); 12% in the data set on circulatory system (24 hr after admin.). Also, the solubility in data set [3] (Water at pH 4) amounted to 0.01 mg/mL; in data set [3] (setting [5]), 0.1 mg/mL. The inhibition at 1 mg/kg with platelet aggregation [4] (inducer ADP) amounted to 12%; with platelet aggregation [4] (inducer collagen) it was 41%. In addition, the inhibition at 10 mg/kg in the data set on platelet aggregation [4] (inducer ADP) turned out to be 31%; in the data set with platelet aggregation [4] (inducer collagen), 54%. In the data set with platelet aggregation [4], the “aggregation inhibitory activity ex vivo (in words)” value is “cannot be regarded significant”.

For the compound `O=C1CN2Cc3c(ccc(Cl)c3Cl)N=C2N1` [BL-4162, 6,7-dichloro-1,2,3,5-tetrahydro[2,1-b]quinazolin-2-one hydrochloride], the IC50 came out at 0.8 µM with platelet aggregation [1] (inducer ADP), 0.02 µM in the data set on platelet aggregation [1] (inducer collagen), 1.2 µM in the data set with platelet aggregation [2] (inducer ADP) and 0.5 µM in the data set on platelet aggregation [2] (inducer collagen). Also, the “Increase in Heart Beat” value was found to be 28% in the data set on circulatory system (1 hr after admin.); 37% in the data set on circulatory system (2 hr after admin.); 31% with circulatory system (3 hr after admin.); 37% in the data set on circulatory system (4 hr after admin.); 31% in the data set with circulatory system (5 hr after admin.); 31% in the data set with circulatory system (6 hr after admin.). Also, the “Reduction in Blood Pressure” value in the data set on circulatory system (1 hr after admin.) came out at 11%; with circulatory system (2 hr after admin.), 16%; in the data set with circulatory system (3 hr after admin.) it was 17%; with circulatory system (4 hr after admin.), 14%; with circulatory system (5 hr after admin.), 14%; with circulatory system (6 hr after admin.) it was 13%. The solubility in data set [3] (Water at pH 4) and in data set [3] (setting [5]) was 0.01 mg/mL in each case. The inhibition at 1 mg/kg was found to be 10% in the data set on platelet aggregation [4] (inducer ADP) and 33% with platelet aggregation [4] (inducer collagen). For the same compound, the inhibition at 10 mg/kg in the data set with platelet aggregation [4] (inducer ADP) came out at 8%; with platelet aggregation [4] (inducer collagen) it was 53%. The “aggregation inhibitory activity ex vivo (in words)” value with platelet aggregation [4] is “cannot be regarded significant”.

As to `Cl.Cl.Nc1ccc2c(c1)CN1CC(=O)NC1=N2` [BL-7-NH2, 7-amino-1,2,3,5-tetrahydroimidazo[2,1-b]quinazolin-2-one dihydrochloride], the IC50 in the data set with platelet aggregation [1] (inducer ADP) is 170 µM; in the data set with platelet aggregation [1] (inducer collagen) it was 16 µM; with platelet aggregation [2] (inducer ADP), 50 µM; in the data set with platelet aggregation [2] (inducer collagen), 28 µM. Moreover, in the data set on platelet aggregation [2] (in vitro, Table 2 results (human and rat PRP)), the “anti-platelet aggregation activity (in words)” value is reported as “scarcely exhibits platelet aggregation inhibitory activity”.
